The source of these data is BindingDB's records for doi:10.1016/j.bmcl.2015.03.038 (Bristol Myers Squibb, 2015).

The target of assay [1] is Neurogenic locus notch homolog protein 3 (Human, UniProt Q9UM47). Briefly: Inhibition of Notch3 intracellular domain fragment transfected in human HeLa cells co-transfected with CBF1-PGL3 luciferase reporter vector by transactivation assay.
The target of assay [2] is Neurogenic locus notch homolog protein 1 (Homo sapiens, UniProt P46531). Briefly: Inhibition of Notch1 intracellular domain fragment transfected in human HeLa cells co-transfected with CBF1-PGL3 luciferase reporter vector by transactivation assay. A general note: In a reporter assay the amount or activity of a reporter protein is the signal.
Sequence of Neurogenic locus notch homolog protein 1 (P46531 whole entry, the tested form may be a part): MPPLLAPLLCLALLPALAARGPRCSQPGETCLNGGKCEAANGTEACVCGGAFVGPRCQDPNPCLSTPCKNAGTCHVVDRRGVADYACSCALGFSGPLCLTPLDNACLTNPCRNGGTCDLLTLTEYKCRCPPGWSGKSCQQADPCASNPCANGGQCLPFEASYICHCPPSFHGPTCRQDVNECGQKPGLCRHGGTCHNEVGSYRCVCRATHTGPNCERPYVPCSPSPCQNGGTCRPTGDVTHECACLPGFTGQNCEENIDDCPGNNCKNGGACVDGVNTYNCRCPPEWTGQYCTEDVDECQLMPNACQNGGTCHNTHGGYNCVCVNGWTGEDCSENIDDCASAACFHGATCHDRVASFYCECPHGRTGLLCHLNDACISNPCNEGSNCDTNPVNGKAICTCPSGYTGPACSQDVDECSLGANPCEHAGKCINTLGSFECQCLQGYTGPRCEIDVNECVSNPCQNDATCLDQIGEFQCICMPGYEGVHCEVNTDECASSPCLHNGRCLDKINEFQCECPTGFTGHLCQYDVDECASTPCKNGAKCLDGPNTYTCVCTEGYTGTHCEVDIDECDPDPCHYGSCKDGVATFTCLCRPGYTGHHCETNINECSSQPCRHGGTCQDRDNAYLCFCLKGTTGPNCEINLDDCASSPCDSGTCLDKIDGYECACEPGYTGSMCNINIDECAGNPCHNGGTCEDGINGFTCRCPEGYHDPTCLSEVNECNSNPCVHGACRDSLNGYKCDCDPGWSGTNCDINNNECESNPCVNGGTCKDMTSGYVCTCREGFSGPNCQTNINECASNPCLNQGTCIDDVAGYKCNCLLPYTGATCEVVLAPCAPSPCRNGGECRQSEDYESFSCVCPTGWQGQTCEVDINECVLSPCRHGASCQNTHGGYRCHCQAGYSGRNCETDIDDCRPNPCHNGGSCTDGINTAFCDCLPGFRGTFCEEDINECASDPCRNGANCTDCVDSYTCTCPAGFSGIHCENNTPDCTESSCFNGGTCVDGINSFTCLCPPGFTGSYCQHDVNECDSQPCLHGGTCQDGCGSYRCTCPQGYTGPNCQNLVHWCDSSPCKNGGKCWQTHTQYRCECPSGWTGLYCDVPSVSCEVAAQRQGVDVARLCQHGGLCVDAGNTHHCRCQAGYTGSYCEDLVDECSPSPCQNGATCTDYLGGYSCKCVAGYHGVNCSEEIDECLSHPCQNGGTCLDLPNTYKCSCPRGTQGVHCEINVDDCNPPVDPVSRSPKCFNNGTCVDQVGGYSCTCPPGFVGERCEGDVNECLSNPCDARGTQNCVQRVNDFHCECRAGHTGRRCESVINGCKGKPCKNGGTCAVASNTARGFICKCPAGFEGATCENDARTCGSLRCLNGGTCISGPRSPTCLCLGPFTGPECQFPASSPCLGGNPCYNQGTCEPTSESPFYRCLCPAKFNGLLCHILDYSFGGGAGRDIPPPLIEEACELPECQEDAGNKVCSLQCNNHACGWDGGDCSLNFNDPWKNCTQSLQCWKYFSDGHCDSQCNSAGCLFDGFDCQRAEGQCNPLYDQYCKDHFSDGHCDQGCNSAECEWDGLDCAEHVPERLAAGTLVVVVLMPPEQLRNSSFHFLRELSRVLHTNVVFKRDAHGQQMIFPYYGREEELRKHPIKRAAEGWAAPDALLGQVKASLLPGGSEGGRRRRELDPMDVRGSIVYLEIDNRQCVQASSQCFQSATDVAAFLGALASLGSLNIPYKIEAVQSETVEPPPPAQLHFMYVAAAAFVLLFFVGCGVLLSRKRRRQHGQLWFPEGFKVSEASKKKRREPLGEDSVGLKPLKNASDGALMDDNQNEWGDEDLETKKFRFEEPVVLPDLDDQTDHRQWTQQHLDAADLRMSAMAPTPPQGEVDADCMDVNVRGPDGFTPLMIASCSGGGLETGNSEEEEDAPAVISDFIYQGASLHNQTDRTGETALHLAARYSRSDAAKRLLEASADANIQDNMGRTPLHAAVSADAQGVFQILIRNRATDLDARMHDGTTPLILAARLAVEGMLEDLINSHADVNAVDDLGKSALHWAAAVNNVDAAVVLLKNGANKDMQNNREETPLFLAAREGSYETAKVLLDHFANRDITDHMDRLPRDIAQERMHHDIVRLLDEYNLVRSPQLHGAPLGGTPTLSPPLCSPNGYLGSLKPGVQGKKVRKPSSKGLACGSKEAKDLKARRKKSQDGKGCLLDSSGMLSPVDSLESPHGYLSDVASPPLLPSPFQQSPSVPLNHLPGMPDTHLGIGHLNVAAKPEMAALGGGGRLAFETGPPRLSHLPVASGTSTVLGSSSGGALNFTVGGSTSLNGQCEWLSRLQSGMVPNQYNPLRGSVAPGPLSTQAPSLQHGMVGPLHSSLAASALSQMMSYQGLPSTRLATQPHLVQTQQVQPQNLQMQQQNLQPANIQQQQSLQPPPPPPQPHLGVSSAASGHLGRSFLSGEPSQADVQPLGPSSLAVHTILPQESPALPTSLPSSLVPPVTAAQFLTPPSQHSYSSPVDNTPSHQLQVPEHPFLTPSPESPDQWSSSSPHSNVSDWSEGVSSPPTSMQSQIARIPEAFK
The target in assay [3] is Neurogenic locus notch homolog protein 2 (Homo sapiens, UniProt Q04721). Description: Inhibition of Notch2 intracellular domain fragment transfected in human HeLa cells co-transfected with CBF1-PGL3 luciferase reporter vector by transactivation assay.
Assay [4] has as its target Neurogenic locus notch homolog protein 4 (Homo sapiens, UniProt Q99466). Description: Inhibition of Notch4 intracellular domain fragment transfected in human HeLa cells co-transfected with CBF1-PGL3 luciferase reporter vector by transactivation assay.

Sequence of Neurogenic locus notch homolog protein 3 (Q9UM47 whole entry, the tested form may be a part): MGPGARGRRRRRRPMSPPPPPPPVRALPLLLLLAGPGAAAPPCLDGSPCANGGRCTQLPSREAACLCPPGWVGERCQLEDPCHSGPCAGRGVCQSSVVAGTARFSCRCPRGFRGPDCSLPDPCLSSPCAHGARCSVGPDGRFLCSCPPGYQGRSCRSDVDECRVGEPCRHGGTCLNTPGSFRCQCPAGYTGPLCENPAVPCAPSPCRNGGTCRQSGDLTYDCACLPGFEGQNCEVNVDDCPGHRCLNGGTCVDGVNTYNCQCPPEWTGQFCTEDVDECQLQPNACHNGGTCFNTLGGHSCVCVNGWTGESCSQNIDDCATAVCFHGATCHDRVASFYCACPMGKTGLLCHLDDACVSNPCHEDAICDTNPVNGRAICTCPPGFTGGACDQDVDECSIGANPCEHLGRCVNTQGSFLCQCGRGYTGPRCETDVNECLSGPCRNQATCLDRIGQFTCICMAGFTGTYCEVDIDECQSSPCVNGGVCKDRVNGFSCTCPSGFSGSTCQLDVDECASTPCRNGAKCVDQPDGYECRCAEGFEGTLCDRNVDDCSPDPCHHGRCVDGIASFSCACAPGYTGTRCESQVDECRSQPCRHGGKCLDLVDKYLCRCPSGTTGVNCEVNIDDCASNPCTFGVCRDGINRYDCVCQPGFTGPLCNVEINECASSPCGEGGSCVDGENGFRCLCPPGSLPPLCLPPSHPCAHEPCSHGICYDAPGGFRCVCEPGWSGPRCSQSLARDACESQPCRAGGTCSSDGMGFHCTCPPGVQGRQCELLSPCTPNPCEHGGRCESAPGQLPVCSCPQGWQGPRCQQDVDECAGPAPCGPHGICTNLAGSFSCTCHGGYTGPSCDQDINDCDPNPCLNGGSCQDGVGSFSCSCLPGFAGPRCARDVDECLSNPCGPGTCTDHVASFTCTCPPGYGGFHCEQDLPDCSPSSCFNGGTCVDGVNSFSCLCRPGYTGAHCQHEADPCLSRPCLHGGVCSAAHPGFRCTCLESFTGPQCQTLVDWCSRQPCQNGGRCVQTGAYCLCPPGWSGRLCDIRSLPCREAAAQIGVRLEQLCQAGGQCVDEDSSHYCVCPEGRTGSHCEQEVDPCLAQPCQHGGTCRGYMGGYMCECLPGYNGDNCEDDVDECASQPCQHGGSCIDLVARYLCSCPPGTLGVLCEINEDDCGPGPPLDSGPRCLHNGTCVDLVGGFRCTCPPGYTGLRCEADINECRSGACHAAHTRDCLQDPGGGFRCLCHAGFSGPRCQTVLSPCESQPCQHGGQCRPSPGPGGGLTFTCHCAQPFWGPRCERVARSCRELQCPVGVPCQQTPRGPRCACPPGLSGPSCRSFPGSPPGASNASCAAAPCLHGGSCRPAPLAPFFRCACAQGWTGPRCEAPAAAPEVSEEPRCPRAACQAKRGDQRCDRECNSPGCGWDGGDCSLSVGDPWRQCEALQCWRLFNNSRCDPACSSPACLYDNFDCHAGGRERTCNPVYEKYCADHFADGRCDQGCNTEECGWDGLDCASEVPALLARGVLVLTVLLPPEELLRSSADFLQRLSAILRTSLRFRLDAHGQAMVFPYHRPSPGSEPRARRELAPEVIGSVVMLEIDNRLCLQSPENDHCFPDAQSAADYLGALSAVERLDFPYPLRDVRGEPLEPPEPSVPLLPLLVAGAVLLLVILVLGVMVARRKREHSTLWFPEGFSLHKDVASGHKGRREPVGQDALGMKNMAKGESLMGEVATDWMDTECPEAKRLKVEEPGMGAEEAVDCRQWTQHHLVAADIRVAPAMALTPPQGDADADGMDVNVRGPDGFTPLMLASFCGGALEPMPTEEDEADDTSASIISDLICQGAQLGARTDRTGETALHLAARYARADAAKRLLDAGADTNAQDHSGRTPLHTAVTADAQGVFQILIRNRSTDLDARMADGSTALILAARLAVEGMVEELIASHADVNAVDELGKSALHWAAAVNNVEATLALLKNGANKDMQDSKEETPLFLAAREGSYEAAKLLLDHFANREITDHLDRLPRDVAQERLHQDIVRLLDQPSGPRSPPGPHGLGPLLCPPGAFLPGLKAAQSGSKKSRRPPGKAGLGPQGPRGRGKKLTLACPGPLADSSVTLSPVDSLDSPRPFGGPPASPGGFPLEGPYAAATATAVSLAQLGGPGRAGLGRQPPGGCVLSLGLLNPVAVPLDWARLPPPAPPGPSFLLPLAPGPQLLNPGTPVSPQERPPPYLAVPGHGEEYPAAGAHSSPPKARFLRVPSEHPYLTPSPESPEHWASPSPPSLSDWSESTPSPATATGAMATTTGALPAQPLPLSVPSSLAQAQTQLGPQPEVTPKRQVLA

The IC50 is the point on the concentration scale where inhibition reaches its midpoint. `CN1C(=O)[C@@H](NC(=O)[C@H](CCC(F)(F)F)[C@@H](C(N)=O)c2cccc(C(F)(F)F)c2)N=C(c2ccccc2)c2ccccc21`: the IC50 in assay [1] was 2 nM; in assay [2], 1 nM.

For the molecule `CCC(CC)[C@H](C(N)=O)[C@@H](CCC(F)(F)F)C(=O)N[C@H]1N=C(c2ccccc2)c2ccccc2N(C)C1=O`, the IC50 in assay [1] and in assay [2] was 1 nM each time.

`COc1ccc([C@H](C(N)=O)[C@@H](CCC(F)(F)F)C(=O)N[C@H]2N=C(c3ccccc3)c3ccccc3N(C)C2=O)cc1`: the IC50 in assay [1] is 6 nM; in assay [2], 9 nM.

In the case of `CCC(CC)[C@H](C(N)=O)[C@@H](CC(C)C)C(=O)N[C@H]1N=C(c2ccccc2)c2ccccc2N(C)C1=O`, in assay [2], half-maximal inhibition (IC50) required 2 nM.

Consider `Cc1nocc1[C@H](C(N)=O)[C@@H](CCC(F)(F)F)C(=O)N[C@H]1N=C(c2ccccc2)c2ccccc2N(C)C1=O`, for which the IC50 in assay [1] and in assay [2] was 3 nM each time.

On to `CN1C(=O)[C@@H](NC(=O)[C@H](CCC(F)(F)F)[C@@H](C(N)=O)c2ccc(F)c(F)c2)N=C(c2ccccc2)c2ccccc21`, for which the IC50 in assay [1] and in assay [2] was 2 nM throughout.

For `CN1C(=O)[C@@H](NC(=O)[C@H](CCC(F)(F)F)[C@@H](C(N)=O)c2cccc(OC(F)(F)F)c2)N=C(c2ccccc2)c2ccccc21`, the IC50 in assay [1] turned out to be 4 nM; in assay [2], 3 nM.

Regarding `CN1C(=O)[C@@H](NC(=O)[C@H](CCC(F)(F)F)[C@@H](C(N)=O)c2ccc(F)cc2)N=C(c2ccccc2)c2ccccc21`, the values for the IC50 in assay [1] and in assay [2] were 1 nM and 2 nM, respectively.

For the molecule `CCC(CC)[C@H](C(N)=O)[C@@H](CC(C)(C)C)C(=O)N[C@H]1N=C(c2ccccc2)c2ccccc2N(C)C1=O`, the IC50 in assay [1] and in assay [2] was 3 nM throughout.

Consider `Cc1cc([C@H](C(N)=O)[C@@H](CCC(F)(F)F)C(=O)N[C@H]2N=C(c3ccccc3)c3ccccc3N(C)C2=O)no1`, for which the IC50 turned out to be 62 nM in assay [1] and 54 nM in assay [2].

Regarding `NC(=O)[C@@H](c1ncon1)[C@@H](CCC(F)(F)F)C(=O)N[C@H]1N=C(c2ccccc2)c2ccccc2NC1=O`, the results for the IC50 in assay [1] and in assay [2] were 656 nM and 1190 nM, respectively.

As for `NC(=O)[C@@H](c1cocn1)[C@@H](CCC(F)(F)F)C(=O)N[C@H]1N=C(c2ccccc2)c2ccccc2NC1=O`, the concentration for half-maximal inhibition (IC50) amounted to 161 nM in assay [1] and 231 nM in assay [2].

As for `CCC[C@H](C(N)=O)[C@@H](CC(F)(F)F)C(=O)N[C@H]1N=C(c2ccccc2)c2ccccc2N(C)C1=O`, the 50% inhibitory concentration (IC50) was 24 nM in assay [1] and 13 nM in assay [2].

For the molecule `NC(=O)[C@@H](c1cnoc1)[C@@H](CCC(F)(F)F)C(=O)N[C@H]1N=C(c2ccccc2)c2ccccc2NC1=O`, the IC50 was 29 nM in assay [1] and 32 nM in assay [2].

For `CN1C(=O)[C@@H](NC(=O)[C@H](CCC(F)(F)F)[C@@H](C(N)=O)c2cc(F)cc(F)c2)N=C(c2ccccc2)c2ccccc21`, the 50% inhibitory concentration (IC50) in assay [1] and in assay [2] was 2 nM in each case.

Turning to `CN1C(=O)[C@@H](NC(=O)[C@H](CCC(F)(F)F)[C@@H](C(N)=O)c2ccc(F)cc2F)N=C(c2ccccc2)c2ccccc21`, the IC50 in assay [1] and in assay [2] was 1 nM throughout.

For `Cc1cccc([C@H](C(N)=O)[C@@H](CCC(F)(F)F)C(=O)N[C@H]2N=C(c3ccccc3)c3ccccc3N(C)C2=O)c1`, the values for the IC50 in assay [1] and in assay [2] were 1 nM and 3 nM, respectively.

As for `CN1C(=O)[C@@H](NC(=O)[C@H](CCC(F)(F)F)[C@@H](C(N)=O)c2cccc(S(C)(=O)=O)c2)N=C(c2ccccc2)c2ccccc21`, the IC50 in assay [1] amounted to 2240 nM; in assay [2], 2060 nM.

Regarding `Cc1nc([C@H](C(N)=O)[C@@H](CCC(F)(F)F)C(=O)N[C@H]2N=C(c3ccccc3)c3ccccc3N(C)C2=O)no1`, the IC50 in assay [1] is 119 nM; in assay [2], 169 nM.

With `CN1C(=O)[C@@H](NC(=O)[C@H](CCC(F)(F)F)[C@@H](C(N)=O)c2ccccc2)N=C(c2ccccc2)c2ccccc21`, the IC50 was found to be 1 nM in assay [3] and 3 nM in assay [4].
